Results from the supplement of paper PMC10331698.
± gives the standard deviation of the averaged measurements.

Tests used:
Experiment in all cases: level (log10 ratio to DMSO vehicle control); higher = higher biomarker level / cell amount than vehicle control
Heptafluorobutyl iodide = compound: FC(F)(F)C(F)(F)C(F)(F)CI [Heptafluorobutyl iodide]; conditions: in DMSO
Description: (§1)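 BioMAP Diversity Plus panel of 12 human primary cell co-culture systems (3C, 4H, LPS, SAg, BT, BF4T, BE3C, CASM3C, HDF3CGF, KF3CT, MyoF, Mphg). Compounds were added 1 h before stimulation and left for 24 h (MyoF 48 h; BT 72 h for soluble read-outs or 6 d for IgG). Biomarkers were read by ELISA, cytotoxicity by SRB, PBMC viability and proliferation by Alamar Blue. Each well value was divided by the mean of 8 DMSO control wells on the same plate and log10 transformed; duplicate blinded samples were tested at 4 concentrations.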

[1] = compound: O=S(=O)(O)C(F)(F)C(F)(F)C(F)(F)C(F)(F)C(F)(F)C(F)(F)C(F)(F)C(F)(F)C(F)(F)C(F)(F)F [Sodium perfluorodecanesulfonate]; conditions: in DMSO
Description: as §1

Octafluoroadipamide = compound: NC(=O)C(F)(F)C(F)(F)C(F)(F)C(F)(F)C(N)=O [Octafluoroadipamide]; conditions: in DMSO
Description: as §1

[2] = compound: O=S(=O)(O)CCC(F)(F)C(F)(F)C(F)(F)C(F)(F)C(F)(F)C(F)(F)F [6:2 Fluorotelomer sulfonic acid]; conditions: in DMSO
Description: as §1

[3] = compound: COC(=O)C(F)(F)C(F)(F)OC(F)(C(F)(F)F)C(F)(F)OC(F)=C(F)F [Methyl perfluoro(3-(1-ethenyloxypropan-2-yloxy)propanoate)]; conditions: in DMSO
Description: as §1

[4] = compound: NC(=O)C(F)(F)C(F)(F)C(F)(F)C(F)F; conditions: in DMSO
Description: as §1

[5] = compound: C=CC(=O)OCC(F)(F)C(F)(F)C(F)(F)COC(=O)C=C [1H,1H,5H,5H-Perfluoro-1,5-pentanediol diacrylate]; conditions: 6700 nM; in DMSO
Description: as §1

[6] = compound: NS(=O)(=O)C(F)(F)C(F)(F)C(F)(F)C(F)(F)C(F)(F)C(F)(F)F [Perfluorohexanesulfonamide]; conditions: in DMSO
Description: as §1

[7] = compound: O=C(O)C=CC(F)(C(F)(F)F)C(F)(F)F [3-(Perfluoroisopropyl)-2-propenoic acid]; conditions: in DMSO
Description: as §1

Hexafluoroamylene glycol = compound: OCC(F)(F)C(F)(F)C(F)(F)CO [Hexafluoroamylene glycol]; conditions: in DMSO
Description: as §1

[8] = compound: FC(F)(F)C(F)(F)C(F)(F)C(F)(F)C(F)(F)C(F)(F)CC1CO1 [3-(Perfluorohexyl)-1,2-epoxypropane]; conditions: in DMSO
Description: as §1

[9] = compound: O=S(=O)(Cl)C(F)(F)C(F)(F)C(F)(F)C(F)(F)C(F)(F)C(F)(F)C(F)(F)C(F)(F)F [Perfluoro-1-octanesulfonyl chloride]; conditions: in DMSO
Description: as §1

[10] = compound: FC(F)(F)C(F)(F)C(F)(F)CC1CO1 [1H,1H-Heptafluorobutyl epoxide]; conditions: in DMSO
Description: as §1

[11] = compound: C=C(C)C(=O)OCCC(F)(F)C(F)(F)C(F)(F)C(F)(F)C(F)(F)C(F)(F)F [6:2 Fluorotelomer methacrylate]; conditions: in DMSO
Description: as §1

[12] = compound: FC(F)(F)C(F)(F)CNCC(F)(F)C(F)(F)F [Bis(1H,1H-perfluoropropyl)amine]; conditions: in DMSO
Description: as §1

Nonafluoropentanamide = compound: NC(=O)C(F)(F)C(F)(F)C(F)(F)C(F)(F)F [Nonafluoropentanamide]; conditions: in DMSO
Description: as §1

[13] = compound: O=C(O)C(F)(F)C(F)(F)C(F)(F)C(F)(F)C(F)(F)C(F)(F)C(F)(F)C(F)(F)C(F)(F)C(F)F [11-H-Perfluoroundecanoic acid]; conditions: in DMSO
Description: as §1

[14] = compound: O=S(=O)(F)C(F)(F)C(F)(F)C(F)(F)C(F)(F)C(F)(F)C(F)(F)C(F)(F)C(F)(F)F [Perfluorooctanesulfonyl fluoride]; conditions: in DMSO
Description: as §1

[15] = compound: FC(F)(F)C(F)(F)C(F)(F)C(F)(F)C(F)(F)C(F)(F)C(F)(F)I [1-Iodopentadecafluoroheptane]; conditions: in DMSO
Description: as §1

In the case of BE3C:MMP-9, the “level (log10)” value (Heptafluorobutyl iodide; 6700 nM) is reported as -0.005 ± 0.0014, the “level (log10)” value (Heptafluorobutyl iodide; 20000 nM) is reported as -0.0085 ± 0.0064 and the “level (log10)” value (Heptafluorobutyl iodide; 60000 nM) is reported as 0.0115 ± 0.015. For the same test system, the “level (log10)” value ([1]; 1500 nM) was -0.0125 ± 0.04, the “level (log10)” value ([1]; 4400 nM) was 0.0105 ± 0.005 and the “level (log10)” value ([1]; 13000 nM) was -0.0785 ± 0.013. The “level (log10)” value ([1]; 40000 nM) was -0.302 ± 0.041, the “level (log10)” value (Octafluoroadipamide; 6700 nM) was -0.024 ± 0.021 and the “level (log10)” value (Octafluoroadipamide; 20000 nM) was -0.0235 ± 0.015. For the same test system, the “level (log10)” value (Octafluoroadipamide; 60000 nM) was 0.0015 ± 0.029, the “level (log10)” value ([2]; 6700 nM) was -0.004 ± 0.021 and the “level (log10)” value ([2]; 20000 nM) was -0.0045 ± 0.0078. For the same test system, the “level (log10)” value ([2]; 60000 nM) was 0.016 ± 0.021, the “level (log10)” value ([3]; 6700 nM) was -0.041 ± 0.038 and the “level (log10)” value ([3]; 20000 nM) was -0.004 ± 0.0057. For the same test system, the “level (log10)” value ([4]; 6700 nM) was -0.007 ± 0.0014, the “level (log10)” value ([4]; 20000 nM) was -0.0045 ± 0.0092 and the “level (log10)” value ([4]; 60000 nM) was 0.0095 ± 0.023. For the same test system, the “level (log10)” value [5] was -0.0485 ± 0.0078, the “level (log10)” value ([6]; 6700 nM) was -0.0585 ± 0.015 and the “level (log10)” value ([6]; 20000 nM) was -0.0435 ± 0.005. The “level (log10)” value ([6]; 60000 nM) was -0.131 ± 0.028, the “level (log10)” value ([7]; 6700 nM) was -0.018 ± 0.0042 and the “level (log10)” value ([7]; 20000 nM) was -0.008 ± 0.0028. The “level (log10)” value ([7]; 60000 nM) was 0.007 ± 0.04, the “level (log10)” value (Hexafluoroamylene glycol; 6700 nM) was -0.014 ± 0.0099 and the “level (log10)” value (Hexafluoroamylene glycol; 20000 nM) was -0.01 ± 0.0057. For the same test system, the “level (log10)” value (Hexafluoroamylene glycol; 60000 nM) was 0.008 ± 0.033, the “level (log10)” value ([8]; 6700 nM) was -0.036 ± 0.0042 and the “level (log10)” value ([8]; 20000 nM) was -0.036. The “level (log10)” value ([8]; 60000 nM) was -0.004 ± 0.042, the “level (log10)” value ([9]; 6700 nM) was -0.018 ± 0.0042 and the “level (log10)” value ([9]; 20000 nM) was 0.0275 ± 0.0078. For the same test system, the “level (log10)” value ([9]; 60000 nM) was -0.35 ± 0.037, the “level (log10)” value ([10]; 6700 nM) was -0.0065 ± 0.0078 and the “level (log10)” value ([10]; 20000 nM) was 0.015 ± 0.014. For the same test system, the “level (log10)” value ([10]; 60000 nM) was -0.013 ± 0.0014, the “level (log10)” value ([11]; 6700 nM) was 0.014 ± 0.0071 and the “level (log10)” value ([11]; 20000 nM) was 0.015 ± 0.0042. The “level (log10)” value ([11]; 60000 nM) was 0.025 ± 0.011, the “level (log10)” value ([12]; 6700 nM) was -0.026 ± 0.0042 and the “level (log10)” value ([12]; 20000 nM) was -0.0175 ± 0.011. For the same test system, the “level (log10)” value ([12]; 60000 nM) was 0.009 ± 0.042, the “level (log10)” value (Nonafluoropentanamide; 6700 nM) was -0.0405 ± 0.03 and the “level (log10)” value (Nonafluoropentanamide; 20000 nM) was -0.026 ± 0.0071. The “level (log10)” value (Nonafluoropentanamide; 60000 nM) was -0.0095 ± 0.005, the “level (log10)” value ([13]; 6700 nM) was -0.058 ± 0.04 and the “level (log10)” value ([13]; 20000 nM) was -0.277 ± 0.049. For the same test system, the “level (log10)” value ([14]; 6700 nM) was -0.025 ± 0.024, the “level (log10)” value ([14]; 20000 nM) was -0.02 ± 0.0042 and the “level (log10)” value ([14]; 60000 nM) was -0.026 ± 0.0071. For the same test system, the “level (log10)” value ([15]; 6700 nM) was -0.014 ± 0.035 and the “level (log10)” value ([15]; 20000 nM) was -0.0465 ± 0.015.
